Here are results for nine compounds from paper PMC7751940, “Synthesis, characterization and evaluation of antidengue activity of enantiomeric Schiff bases derived from S-substituted dithiocarbazate” (Turkish Journal of Chemistry, 2020).

Like-named read-outs stand apart in the source and are kept apart here.

One data set is described as follows: MTT cytotoxicity assay. Type of data set: cell-based. The settings on record: African green monkey (Chlorocebus sp.), Vero cells (kidney), four days incubation, Table 4. As to the method: (§1) Aedes albopictus clone C6/36 cells were maintained to propagate the dengue virus type 2 (DENV 2); African green monkey ( Chlorocebus sp.) kidney Vero cells were grown for antiviral analysis. Both cells were grown in Eagle’s Minimum Essential Medium (EMEM) (Biowest LLC, Riverside, MO, USA) with 10% Fetal Bovine Serum (FBS) (Biowest LLC).
The 96-well plates were seeded with 100 µL of Vero cell suspension at a density of 1 × 10^5 cells / mL and the next day were treated with different dilutions of the synthesized compounds. Control wells were treated with only the vehicle media used to prepare the antiviral dilutions. Plates were incubated for four days at 37 °C. Following the addition of 15 μL of MTT (Sigma-Aldrich Corp., St. Louis, MO, USA) solution into each well, the plates were incubated at 37 °C for another 4 h. Subsequently, the medium was carefully aspirated from all the wells and 100 μL of DMSO was added to each well [26]. The optical density (OD) of the wells was measured at 570 nm using a 96-well plate reader (Tecan Group AG, Männedorf, Switzerland). The percentage cell viability was calculated against the untreated controls. Dose-response curves were plotted. Half maximal cytotoxic concentration (CC50) was calculated using Graph Pad Prism for Windows, Version 5 (GraphPad Software Inc., San Diego, CA, USA).

Data set [1] relates to DENV 2. Briefly: CPE reduction-based antiviral assay (primary evaluation). Type of data set: cell-based, dengue virus type 2 (DENV 2). More on the design: key: ++++ for total reduction; +++ for 75% reduction; ++ for 50% reduction; + for less than 50% reduction; -- for no reduction. The conditions noted are these: DENV 2-infected Vero cells, treated after 1 h viral adsorption, graded per Kudi and Myint. As to the method:
as §1
Ribavirin tablets (Copegus, 200 mg, Genentech, Inc., South San Francisco, CA, USA) were purchased and stock solutions were stored. Dilutions were prepared in 2% FBS (maintenance media) at the time of assay. TCID50 assay was employed to measure the titer of the virus stocks for antiviral evaluation following standard methods. The viral CPE was observed on the third and fourth days and observations were recorded based on the Reed–Muench method.
Plates were seeded with Vero cell suspension (100 µL) at a density of 1 × 10^5 cells/mL one day before the wells were treated with TCID50 (100 µL) dilution of the DENV 2 stock and untreated control wells were maintained in parallel. After 1 h of viral adsorption, unbound viruses were washed and different antiviral dilutions were added. These plates were further incubated for 4 more days and were observed daily. Observations were recorded on the third and fourth days. The wells were marked for CPE reduction according to the grading system defined by Kudi and Myint.

Data set [2] deals with DENV 2. Briefly: Foci forming unit reduction assay (FFURA, secondary evaluation). Type of data set: cell-based, dengue virus type 2 (DENV 2). The conditions noted are these: for Selectivity index CC50/IC50: CC50 (Vero, MTT) / IC50 (FFURA, DENV 2); for reduction in the number of foci: three different dilutions; for IC50: Dengue virus, 96 h, read-out: IC50 ± SE. As to the method: as §1
Antiviral activity was quantitatively validated by measuring the reduction in the number of DENV infectious foci after 4 days of treatment. DENV 2 infected Vero cells were treated with different antiviral dilutions supplemented with 2% FBS and 1.5% carboxymethyl cellulose (CMC). Virus foci were stained and visualized according to the published protocol. The number of foci was counted through stereomicroscope and virus titer was stated as foci forming unit (FFU). To calculate the antiviral activity of antidengue compounds, the percentage reduction in foci (%RF) was calculated between the treated, and untreated wells maintained in parallel. The assay was repeated three times, dose-response curves were plotted and half […] inhibitory concentration (IC50) and selectivity index (SI) were calculated.

[3] abbreviates: DENV 2 infected Vero cells, foci reduction after 4 days of treatment.

Regarding `CC1(C)[C@@H]2CC[C@@]1(C)/C(=N/NC(=S)SCc1ccccc1)C2` [SBRCM, Benzyl (E)-2-((1R,4R)-1,7,7-trimethylbicyclo[2.2.1]heptan-2-ylidene)hydrazine-1-carbodithioate], it took 81.7 ± 4.4 µM to reach half-maximal cytotoxicity in the data set “MTT cytotoxicity assay” (CC50 at 4 days). Besides, the CPE reduction result with DENV 2 [1] was “++ (++ for 50% reduction)”. Further, the “Selectivity index CC50/IC50” value with DENV 2 [2] is given as 10.4. The “reduction in the number of foci” value with DENV 2 [2] (DENV 2 infected Vero cells) is “reduction in the number of foci appearance”. For the same compound, the 50% inhibitory concentration (IC50) (commonly the midpoint of a concentration-inhibition curve) in the data set with DENV 2 [2] (setting [3]) came out at 7.8 ± 4.5 µM.

Turning to `C=C(C)[C@@H]1CC=C(C)/C(=N/NC(=S)SCc2ccccc2)C1` [SBRCV, Benzyl (R,E)-2-(2-methyl-5-(prop-1-en-2-yl)cyclohex-2-en-1-ylidene)hydrazine-1-carbodithioate], the CC50 – broadly, the concentration that lowers cell viability or growth by half – at 4 days in “MTT cytotoxicity assay” was 28.5 ± 3.9 µM. The CPE reduction entry in the data set with DENV 2 [1] is on record as “+ (+ for less than 50% reduction)”.

`CC1(C)[C@H]2CC[C@]1(C)/C(=N/NC(=S)SCc1ccccc1)C2` [SBSCM, Benzyl (E)-2-((1S,4S)-1,7,7-trimethylbicyclo[2.2.1]heptan-2-ylidene)hydrazine-1-carbodithioate]: it took 87.2 ± 5.9 µM to reach half-maximal cytotoxicity in the data set “MTT cytotoxicity assay” (CC50 at 4 days). Moreover, in the data set on DENV 2 [1], the CPE reduction entry is given as “++ (++ for 50% reduction)”. Also, in the data set on DENV 2 [2], the “Selectivity index CC50/IC50” value is 12.8. For the same compound, the “reduction in the number of foci” value with DENV 2 [2] (DENV 2 infected Vero cells) is recorded as “reduction in the number of foci appearance”. Further, the half-maximal inhibitory concentration (IC50) in the data set with DENV 2 [2] (setting [3]) is 6.8 ± 2.3 µM.

For `C=C(C)[C@H]1CC=C(C)/C(=N/NC(=S)SCc2ccccc2)C1` [SBSCV, Benzyl (S,E)-2-(2-methyl-5-(prop-1-en-2-yl)cyclohex-2-en-1-ylidene)hydrazine-1-carbodithioate], the CC50 at 4 days in the data set “MTT cytotoxicity assay” was determined as 29.2 ± 6.4 µM. The CPE reduction entry in the data set on DENV 2 [1] is on record as “+ (+ for less than 50% reduction)”.

For the compound `CSC(=S)N/N=C1\C[C@H]2CC[C@]1(C)C2(C)C` [SMRCM, Methyl (E)-2-((1R,4R)-1,7,7-trimethylbicyclo[2.2.1]heptan-2-ylidene)hydrazine-1-carbodithioate], the CC50 at 4 days in the data set “MTT cytotoxicity assay” was determined as 88.4 ± 3.8 µM. In addition, the CPE reduction entry in the data set on DENV 2 [1] was “++ (++ for 50% reduction)”. In the data set with DENV 2 [2], the “Selectivity index CC50/IC50” value is reported as 12.8. For the same compound, the “reduction in the number of foci” value with DENV 2 [2] (DENV 2 infected Vero cells) is reported as “reduction in the number of foci appearance”. For the same compound, the IC50 in the data set on DENV 2 [2] (setting [3]) stood at 6.9 ± 1.2 µM.

In “MTT cytotoxicity assay”, `C=C(C)[C@@H]1CC=C(C)/C(=N/NC(=S)SC)C1` [SMRCV, Methyl (R,E)-2-(2-methyl-5-(prop-1-en-2-yl)cyclohex-2-en-1-ylidene)hydrazine-1-carbodithioate] displayed a CC50 at 4 days of 31.1 ± 8 µM. In the data set with DENV 2 [1], the CPE reduction result is “--”.

`CSC(=S)N/N=C1\C[C@@H]2CC[C@@]1(C)C2(C)C` [SMSCM, Methyl (E)-2-((1S,4S)-1,7,7-trimethylbicyclo[2.2.1]heptan-2-ylidene)hydrazine-1-carbodithioate] displayed a CC50 at 4 days in “MTT cytotoxicity assay” of 88.7 ± 2 µM. Besides, in the data set on DENV 2 [1], the CPE reduction result is given as “++ (++ for 50% reduction)”. Moreover, in the data set on DENV 2 [2], the “Selectivity index CC50/IC50” value stood at 14.3. Moreover, the “reduction in the number of foci” value in the data set with DENV 2 [2] (DENV 2 infected Vero cells) was “reduction in the number of foci appearance”. Also, in the data set on DENV 2 [2] (setting [3]), the half-maximal inhibitory concentration (IC50) came out at 6.2 ± 3.2 µM.

For the compound `CSC(=S)N/N=C1\C(=O)[C@@]2(C)CC[C@@H]1C2(C)C` [SMSCQ, Methyl (Z)-2-((1R,4S)-4,7,7-trimethyl-3-oxobicyclo[2.2.1]heptan-2-ylidene)hydrazine-1-carbodithioate], the CC50 at 4 days in the data set “MTT cytotoxicity assay” worked out at 69.2 ± 5.9 µM. Also, the CPE reduction result in the data set on DENV 2 [1] is “+ (+ for less than 50% reduction)”. In addition, the “reduction in the number of foci” value with DENV 2 [2] (DENV 2 infected Vero cells) was “reduction in the number of foci appearance”. Further, the concentration for half-maximal inhibition (IC50) in the data set on DENV 2 [2] (Vero) was found to be 6.8 ± 2.8 µM.

In the data set “MTT cytotoxicity assay”, `C=C(C)[C@H]1CC=C(C)/C(=N/NC(=S)SC)C1` [SMSCV, Methyl (S,E)-2-(2-methyl-5-(prop-1-en-2-yl)cyclohex-2-en-1-ylidene)hydrazine-1-carbodithioate] yielded a 50% cytotoxic concentration (CC50) at 4 days of 24.5 ± 9.2 µM. The CPE reduction entry with DENV 2 [1] is reported as “--”.
